Key:
[1] = target: Alpha-1D adrenergic receptor (Homo sapiens) (UniProt P25100); conditions: Compound concentration 10.0 uM
[2] = target: Insulin receptor (Homo sapiens) (UniProt P06213); conditions: Compound concentration 1.0 uM
[3] = target: Mitogen-activated protein kinase kinase kinase 11 (Homo sapiens) (UniProt Q16584); conditions: Compound concentration 1.0 uM
[4] = target: Serine/threonine-protein kinase tousled-like 2 (Homo sapiens) (UniProt Q86UE8); conditions: Compound concentration 1.0 uM
Serine/threonine-protein kinase tousled-like 2 (Homo sapiens), sequence (Q86UE8 whole entry, looked up): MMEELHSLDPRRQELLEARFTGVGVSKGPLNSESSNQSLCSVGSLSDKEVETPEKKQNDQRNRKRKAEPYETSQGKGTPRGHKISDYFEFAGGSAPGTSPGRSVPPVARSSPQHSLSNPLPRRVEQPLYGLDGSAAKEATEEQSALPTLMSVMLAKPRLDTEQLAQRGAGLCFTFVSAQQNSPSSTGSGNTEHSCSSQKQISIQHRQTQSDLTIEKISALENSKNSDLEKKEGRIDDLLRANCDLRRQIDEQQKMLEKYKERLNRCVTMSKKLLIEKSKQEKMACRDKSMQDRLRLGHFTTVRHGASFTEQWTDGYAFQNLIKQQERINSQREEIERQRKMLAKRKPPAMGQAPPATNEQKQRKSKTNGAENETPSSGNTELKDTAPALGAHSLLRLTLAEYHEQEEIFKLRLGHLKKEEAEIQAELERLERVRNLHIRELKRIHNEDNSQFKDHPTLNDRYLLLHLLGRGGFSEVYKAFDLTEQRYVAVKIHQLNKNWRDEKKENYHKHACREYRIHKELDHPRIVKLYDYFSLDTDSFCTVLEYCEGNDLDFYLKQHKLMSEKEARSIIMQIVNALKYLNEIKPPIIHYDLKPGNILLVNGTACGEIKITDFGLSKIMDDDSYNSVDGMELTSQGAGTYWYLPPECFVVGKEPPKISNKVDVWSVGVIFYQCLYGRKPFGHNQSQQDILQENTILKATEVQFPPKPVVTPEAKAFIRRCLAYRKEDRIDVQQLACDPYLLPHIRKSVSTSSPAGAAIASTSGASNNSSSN

[5] = target: T1, Serine/threonine-protein kinase 3 (Homo sapiens) (UniProt Q13188); conditions: Compound concentration 1.0 uM
T1 sequence (whole entry): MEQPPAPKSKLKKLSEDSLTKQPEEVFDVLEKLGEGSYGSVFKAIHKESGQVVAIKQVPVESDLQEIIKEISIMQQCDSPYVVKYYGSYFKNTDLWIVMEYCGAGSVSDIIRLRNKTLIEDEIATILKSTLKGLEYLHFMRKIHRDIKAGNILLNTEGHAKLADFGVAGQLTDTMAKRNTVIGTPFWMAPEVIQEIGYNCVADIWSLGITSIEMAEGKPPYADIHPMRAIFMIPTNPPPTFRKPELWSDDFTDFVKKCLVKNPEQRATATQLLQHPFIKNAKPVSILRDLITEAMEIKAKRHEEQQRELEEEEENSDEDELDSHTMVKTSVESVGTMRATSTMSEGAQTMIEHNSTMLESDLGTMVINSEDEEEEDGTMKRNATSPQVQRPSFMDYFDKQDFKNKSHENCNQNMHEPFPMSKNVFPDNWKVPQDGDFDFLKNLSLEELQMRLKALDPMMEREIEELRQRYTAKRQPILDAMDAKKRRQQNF

[6] = target: Serine/threonine-protein kinase MRCK alpha (Homo sapiens) (UniProt Q5VT25); conditions: Compound concentration 1.0 uM
[7] = target: Serine/threonine-protein kinase 25 (Homo sapiens) (UniProt O00506); conditions: Compound concentration 1.0 uM
Serine/threonine-protein kinase 25 (Homo sapiens), sequence (O00506 whole entry, looked up): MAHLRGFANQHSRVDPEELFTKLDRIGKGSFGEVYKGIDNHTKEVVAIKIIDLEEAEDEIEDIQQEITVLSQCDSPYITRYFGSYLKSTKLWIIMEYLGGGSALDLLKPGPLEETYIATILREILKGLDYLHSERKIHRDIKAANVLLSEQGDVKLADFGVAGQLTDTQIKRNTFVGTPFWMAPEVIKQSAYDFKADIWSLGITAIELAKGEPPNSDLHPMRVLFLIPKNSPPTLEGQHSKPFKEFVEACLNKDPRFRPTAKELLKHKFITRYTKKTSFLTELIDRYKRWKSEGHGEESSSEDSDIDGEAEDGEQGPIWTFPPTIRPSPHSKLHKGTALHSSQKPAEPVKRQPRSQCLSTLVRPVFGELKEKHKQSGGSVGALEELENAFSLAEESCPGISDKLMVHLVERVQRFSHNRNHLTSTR

[8] = target: Serine/threonine-protein kinase/endoribonuclease IRE1 (Homo sapiens) (UniProt O75460); conditions: Compound concentration 1.0 uM
Serine/threonine-protein kinase/endoribonuclease IRE1 (Homo sapiens), sequence (O75460 19-977 limits assumed): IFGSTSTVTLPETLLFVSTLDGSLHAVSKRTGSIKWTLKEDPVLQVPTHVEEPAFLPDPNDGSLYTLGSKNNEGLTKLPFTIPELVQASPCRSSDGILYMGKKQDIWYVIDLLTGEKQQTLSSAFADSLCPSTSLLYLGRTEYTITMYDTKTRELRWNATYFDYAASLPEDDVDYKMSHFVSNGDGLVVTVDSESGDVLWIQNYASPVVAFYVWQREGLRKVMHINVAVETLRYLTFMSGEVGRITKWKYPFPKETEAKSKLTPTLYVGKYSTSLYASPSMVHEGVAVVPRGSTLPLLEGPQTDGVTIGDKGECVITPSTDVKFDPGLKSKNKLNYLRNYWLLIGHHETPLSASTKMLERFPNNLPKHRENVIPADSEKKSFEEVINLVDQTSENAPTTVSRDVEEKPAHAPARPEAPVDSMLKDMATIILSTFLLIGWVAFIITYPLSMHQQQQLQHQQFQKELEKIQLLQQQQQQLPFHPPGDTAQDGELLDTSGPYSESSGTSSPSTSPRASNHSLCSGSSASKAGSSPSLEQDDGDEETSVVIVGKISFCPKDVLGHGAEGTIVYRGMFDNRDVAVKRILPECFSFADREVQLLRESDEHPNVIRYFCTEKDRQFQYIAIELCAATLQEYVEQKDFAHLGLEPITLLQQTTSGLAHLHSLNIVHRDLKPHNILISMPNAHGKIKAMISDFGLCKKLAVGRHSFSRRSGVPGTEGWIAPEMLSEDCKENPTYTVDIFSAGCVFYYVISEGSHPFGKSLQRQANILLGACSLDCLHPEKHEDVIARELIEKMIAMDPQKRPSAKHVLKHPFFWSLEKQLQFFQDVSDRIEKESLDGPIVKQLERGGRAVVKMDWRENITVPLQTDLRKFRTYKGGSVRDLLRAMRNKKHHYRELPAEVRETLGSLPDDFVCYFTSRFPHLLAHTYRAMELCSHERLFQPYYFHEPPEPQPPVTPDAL

[9] = target: RAC-alpha serine/threonine-protein kinase (Homo sapiens) (UniProt P31749); conditions: Compound concentration 1.0 uM
[10] = target: T2, G protein-coupled receptor kinase 3 (Homo sapiens) (UniProt P35626); conditions: Compound concentration 1.0 uM
T2 sequence (whole entry): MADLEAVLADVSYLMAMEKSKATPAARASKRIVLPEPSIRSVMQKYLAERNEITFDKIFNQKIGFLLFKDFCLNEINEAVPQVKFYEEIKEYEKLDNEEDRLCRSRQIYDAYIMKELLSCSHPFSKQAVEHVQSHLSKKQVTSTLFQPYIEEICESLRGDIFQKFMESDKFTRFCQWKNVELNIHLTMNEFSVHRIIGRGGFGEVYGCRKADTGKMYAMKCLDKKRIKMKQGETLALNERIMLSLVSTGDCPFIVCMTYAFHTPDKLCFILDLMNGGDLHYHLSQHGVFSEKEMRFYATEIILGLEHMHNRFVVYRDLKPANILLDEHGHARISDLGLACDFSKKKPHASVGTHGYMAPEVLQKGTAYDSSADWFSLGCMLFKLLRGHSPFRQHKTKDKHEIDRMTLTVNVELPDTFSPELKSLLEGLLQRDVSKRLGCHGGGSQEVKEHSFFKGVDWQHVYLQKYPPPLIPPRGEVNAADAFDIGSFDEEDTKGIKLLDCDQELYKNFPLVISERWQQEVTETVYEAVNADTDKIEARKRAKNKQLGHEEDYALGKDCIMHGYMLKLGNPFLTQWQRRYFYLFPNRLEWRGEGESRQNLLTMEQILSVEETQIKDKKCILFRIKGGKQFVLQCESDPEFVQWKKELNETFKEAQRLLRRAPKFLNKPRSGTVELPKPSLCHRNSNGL

[11] = target: Serine/threonine-protein kinase PAK 6 (Homo sapiens) (UniProt Q9NQU5); conditions: Compound concentration 1.0 uM
[12] = target: Activin receptor type-1-like (Homo sapiens) (UniProt P37023); conditions: Compound concentration 1.0 uM
Activin receptor type-1-like (Homo sapiens), sequence (P37023 whole entry): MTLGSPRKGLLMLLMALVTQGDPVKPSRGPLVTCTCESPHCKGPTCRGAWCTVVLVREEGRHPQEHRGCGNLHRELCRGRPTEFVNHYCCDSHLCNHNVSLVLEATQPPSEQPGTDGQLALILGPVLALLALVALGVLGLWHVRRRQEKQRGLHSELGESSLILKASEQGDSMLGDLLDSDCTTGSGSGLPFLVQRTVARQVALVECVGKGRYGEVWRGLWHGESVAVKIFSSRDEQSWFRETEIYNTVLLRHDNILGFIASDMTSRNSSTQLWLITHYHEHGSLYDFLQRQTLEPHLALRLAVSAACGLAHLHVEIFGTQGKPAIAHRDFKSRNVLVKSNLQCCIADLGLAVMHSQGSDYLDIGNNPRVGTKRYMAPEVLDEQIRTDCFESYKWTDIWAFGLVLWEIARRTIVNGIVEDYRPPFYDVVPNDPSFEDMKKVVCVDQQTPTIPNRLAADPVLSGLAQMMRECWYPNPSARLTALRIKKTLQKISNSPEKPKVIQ

[13] = target: Ribosomal protein S6 kinase alpha-6 (Homo sapiens) (UniProt Q9UK32); conditions: Compound concentration 1.0 uM
[14] = target: Serine/threonine-protein kinase PAK 4 (Homo sapiens) (UniProt O96013); conditions: Compound concentration 1.0 uM
Serine/threonine-protein kinase PAK 4 (Homo sapiens), sequence (O96013 whole entry, looked up): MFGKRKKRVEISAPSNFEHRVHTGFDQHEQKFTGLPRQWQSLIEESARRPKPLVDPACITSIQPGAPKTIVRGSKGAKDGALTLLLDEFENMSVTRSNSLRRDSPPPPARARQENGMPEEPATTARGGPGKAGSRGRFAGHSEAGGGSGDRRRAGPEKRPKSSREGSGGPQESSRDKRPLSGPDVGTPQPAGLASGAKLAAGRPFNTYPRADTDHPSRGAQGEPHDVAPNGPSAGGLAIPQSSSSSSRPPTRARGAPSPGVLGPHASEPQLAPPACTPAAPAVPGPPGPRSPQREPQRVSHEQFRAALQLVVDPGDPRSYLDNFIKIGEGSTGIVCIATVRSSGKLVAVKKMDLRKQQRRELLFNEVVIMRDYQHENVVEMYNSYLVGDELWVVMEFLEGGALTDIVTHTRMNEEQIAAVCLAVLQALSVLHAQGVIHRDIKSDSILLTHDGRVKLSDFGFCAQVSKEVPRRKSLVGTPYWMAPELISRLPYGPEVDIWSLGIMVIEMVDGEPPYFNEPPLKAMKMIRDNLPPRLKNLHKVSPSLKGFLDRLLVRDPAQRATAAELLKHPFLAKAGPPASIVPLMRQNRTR

[15] = target: T3, Serine/threonine-protein kinase tousled-like 1 (Homo sapiens) (UniProt Q9UKI8); conditions: Compound concentration 1.0 uM
T3 sequence (whole entry): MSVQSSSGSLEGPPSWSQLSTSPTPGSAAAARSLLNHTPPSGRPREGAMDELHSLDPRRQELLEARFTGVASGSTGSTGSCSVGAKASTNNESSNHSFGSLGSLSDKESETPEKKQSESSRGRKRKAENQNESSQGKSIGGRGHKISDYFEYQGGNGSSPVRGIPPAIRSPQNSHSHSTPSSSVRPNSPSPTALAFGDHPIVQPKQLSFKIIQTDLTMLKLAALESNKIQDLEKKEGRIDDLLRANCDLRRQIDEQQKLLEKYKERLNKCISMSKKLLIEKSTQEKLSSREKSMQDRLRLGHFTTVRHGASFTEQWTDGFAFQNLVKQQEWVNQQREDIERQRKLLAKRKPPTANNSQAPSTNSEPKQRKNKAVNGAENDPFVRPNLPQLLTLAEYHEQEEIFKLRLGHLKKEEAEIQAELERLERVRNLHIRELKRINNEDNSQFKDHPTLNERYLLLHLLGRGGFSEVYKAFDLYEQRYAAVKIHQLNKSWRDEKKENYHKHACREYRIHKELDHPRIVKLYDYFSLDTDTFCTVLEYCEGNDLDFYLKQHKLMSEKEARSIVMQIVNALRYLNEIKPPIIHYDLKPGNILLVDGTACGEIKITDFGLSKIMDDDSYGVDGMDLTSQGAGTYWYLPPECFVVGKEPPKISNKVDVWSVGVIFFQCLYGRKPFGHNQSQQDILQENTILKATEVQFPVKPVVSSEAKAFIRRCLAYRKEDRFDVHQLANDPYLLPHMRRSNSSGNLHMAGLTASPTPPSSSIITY

Homo sapiens = species on record: Homo sapiens; conditions: Compound concentration 1.0 uM

Mitogen-activated protein kinase kinase kinase 11 (Homo sapiens), sequence (Q16584 whole entry, looked up): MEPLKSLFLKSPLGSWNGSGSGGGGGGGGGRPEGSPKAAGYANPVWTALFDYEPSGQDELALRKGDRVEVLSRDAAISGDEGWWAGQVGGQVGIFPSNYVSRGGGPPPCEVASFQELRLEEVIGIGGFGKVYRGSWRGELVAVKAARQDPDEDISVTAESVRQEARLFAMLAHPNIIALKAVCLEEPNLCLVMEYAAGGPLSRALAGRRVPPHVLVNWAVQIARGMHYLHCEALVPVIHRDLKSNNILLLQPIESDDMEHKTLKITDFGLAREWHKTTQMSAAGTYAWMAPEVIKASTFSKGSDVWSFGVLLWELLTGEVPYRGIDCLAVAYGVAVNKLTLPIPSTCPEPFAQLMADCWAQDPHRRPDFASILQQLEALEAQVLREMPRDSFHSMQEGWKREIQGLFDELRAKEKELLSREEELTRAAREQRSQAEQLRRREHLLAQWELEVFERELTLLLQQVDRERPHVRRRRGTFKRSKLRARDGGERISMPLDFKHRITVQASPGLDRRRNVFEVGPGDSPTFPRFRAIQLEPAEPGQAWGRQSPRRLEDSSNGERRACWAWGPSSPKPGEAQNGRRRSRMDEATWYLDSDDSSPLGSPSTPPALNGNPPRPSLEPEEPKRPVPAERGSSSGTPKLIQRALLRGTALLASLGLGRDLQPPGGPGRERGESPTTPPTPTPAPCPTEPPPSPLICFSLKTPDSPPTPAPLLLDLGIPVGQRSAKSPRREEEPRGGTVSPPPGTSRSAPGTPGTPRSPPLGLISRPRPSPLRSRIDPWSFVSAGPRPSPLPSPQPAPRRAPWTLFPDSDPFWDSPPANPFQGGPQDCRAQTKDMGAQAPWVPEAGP
Alpha-1D adrenergic receptor (Homo sapiens), sequence (P25100 whole entry): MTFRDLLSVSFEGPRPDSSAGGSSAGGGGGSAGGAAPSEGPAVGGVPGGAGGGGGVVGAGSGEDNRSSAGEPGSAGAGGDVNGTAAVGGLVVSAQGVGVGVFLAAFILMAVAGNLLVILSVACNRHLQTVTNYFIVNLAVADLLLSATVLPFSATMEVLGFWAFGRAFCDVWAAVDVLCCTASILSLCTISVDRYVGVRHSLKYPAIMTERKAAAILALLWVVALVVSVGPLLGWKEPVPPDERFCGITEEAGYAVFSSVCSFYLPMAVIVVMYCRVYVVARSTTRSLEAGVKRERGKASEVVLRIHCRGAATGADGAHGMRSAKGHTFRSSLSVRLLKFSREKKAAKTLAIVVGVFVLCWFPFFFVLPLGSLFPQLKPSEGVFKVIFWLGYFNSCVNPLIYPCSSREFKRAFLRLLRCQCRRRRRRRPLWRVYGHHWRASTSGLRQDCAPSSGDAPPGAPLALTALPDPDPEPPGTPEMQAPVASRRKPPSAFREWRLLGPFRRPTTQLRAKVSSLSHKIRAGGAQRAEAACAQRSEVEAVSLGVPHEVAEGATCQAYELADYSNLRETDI

Cc1nc(C2CCN(C(=O)c3ccc(OC(F)(F)F)cc3N)CC2)c2ncc(N3CCN(C)CC3)cc2n1 [BAY-693]
inactive: inhibition [1] 5.29%

CN1CCN(c2cnc3c(C4CCN(C(=O)c5ccc(OC(F)(F)F)cc5N)CC4)ncnc3c2)CC1 [BAY-885]
inactive: % residual kinase activity [2] 107% | % residual kinase activity [3] 112% | % residual kinase activity [4] 98% | % residual kinase activity [5] 128% | % residual kinase activity [6] 111% | % residual kinase activity [7] 87% | % residual kinase activity [8] 110% | % residual kinase activity [9] 113% | % residual kinase activity [10] 92% | % residual kinase activity [11] 103% | % residual kinase activity [12] 118% | % residual kinase activity [13] 103% | % residual kinase activity [14] 101% | % residual kinase activity [15] 106% | % residual kinase activity (Homo sapiens) 112%
